# Experimental data taken from PubChem BioAssay (NCI).
#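 Following 48 hours of exposure in 96-well plates, responses at five concentrations were used to interpolate endpoints linearly. GI50: concentration for 50% inhibition of growth. Definition used: TGI = concentration required for complete inhibition of growth.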
# Key:
# Assay in all cases: DTP human tumour cell line panel, 48 h
# 786-0 renal = system: 786-0 renal
# A498 renal = system: A498 renal
# A549 NSCLC = system: A549 NSCLC
# ACHN renal = system: ACHN renal
# BT-549 breast = system: BT-549 breast
# CAKI-1 renal = system: CAKI-1 renal
# CCRF-CEM leukemia = system: CCRF-CEM leukemia
# COLO 205 colon = system: COLO 205 colon
# DU-145 prostate = system: DU-145 prostate
# EKVX NSCLC = system: EKVX NSCLC
# HCC-2998 colon = system: HCC-2998 colon
# HCT-116 colon = system: HCT-116 colon
# HCT-15 colon = system: HCT-15 colon
# HL-60(TB) leukemia = system: HL-60(TB) leukemia
# HOP-62 NSCLC = system: HOP-62 NSCLC
# HOP-92 NSCLC = system: HOP-92 NSCLC
# HS 578T breast = system: HS 578T breast
# HT29 colon = system: HT29 colon
# IGROV1 ovarian = system: IGROV1 ovarian
# K-562 leukemia = system: K-562 leukemia
# KM12 colon = system: KM12 colon
# LOX IMVI melanoma = system: LOX IMVI melanoma
# M14 melanoma = system: M14 melanoma
# MALME-3M melanoma = system: MALME-3M melanoma
# MCF7 breast = system: MCF7 breast
# MDA-MB-231 breast = system: MDA-MB-231 breast
# MDA-MB-435 = system: MDA-MB-435
# MDA-MB-468 breast = system: MDA-MB-468 breast
# MOLT-4 leukemia = system: MOLT-4 leukemia
# NCI-H226 lung = system: NCI-H226 lung
# NCI-H23 lung = system: NCI-H23 lung
# NCI-H460 lung = system: NCI-H460 lung
# NCI-H522 lung = system: NCI-H522 lung
# NCI/ADR-RES ovarian = system: NCI/ADR-RES ovarian
# OVCAR-3 ovarian = system: OVCAR-3 ovarian
# OVCAR-4 ovarian = system: OVCAR-4 ovarian
# OVCAR-5 ovarian = system: OVCAR-5 ovarian
# OVCAR-8 ovarian = system: OVCAR-8 ovarian
# PC-3 prostate = system: PC-3 prostate
# RPMI-8226 leukemia = system: RPMI-8226 leukemia
# RXF 393 renal = system: RXF 393 renal
# SF-268 CNS = system: SF-268 CNS
# SF-295 CNS = system: SF-295 CNS
# SF-539 CNS = system: SF-539 CNS
# SK-MEL-2 melanoma = system: SK-MEL-2 melanoma
# SK-MEL-28 melanoma = system: SK-MEL-28 melanoma
# SK-MEL-5 melanoma = system: SK-MEL-5 melanoma
# SK-OV-3 ovarian = system: SK-OV-3 ovarian
# SN12C renal = system: SN12C renal
# SNB-19 CNS = system: SNB-19 CNS
# SR leukemia = system: SR leukemia
# SW-620 colon = system: SW-620 colon
# T-47D breast = system: T-47D breast
# TK-10 renal = system: TK-10 renal
# U251 CNS = system: U251 CNS
# UACC-257 melanoma = system: UACC-257 melanoma
# UACC-62 melanoma = system: UACC-62 melanoma
# UO-31 renal = system: UO-31 renal
compound,measurement,setting,value
C/C(=N\Nc1ccc(S(N)(=O)=O)cc1)c1ccc(N=Nc2c(Nc3ccccc3)[nH][nH]c2=O)cc1,GI50,786-0 renal,2.14 µM
same,TGI,786-0 renal,6.27 µM
same,GI50,A498 renal,11.4 µM
same,TGI,A498 renal,32.8 µM
same,GI50,A549 NSCLC,19.4 µM
same,TGI,A549 NSCLC,> 100 µM
same,GI50,ACHN renal,5.9 µM
same,TGI,ACHN renal,18.5 µM
same,GI50,BT-549 breast,2.83 µM
same,TGI,BT-549 breast,9.66 µM
same,GI50,CAKI-1 renal,12.5 µM
same,TGI,CAKI-1 renal,25.1 µM
same,GI50,CCRF-CEM leukemia,2.63 µM
same,TGI,CCRF-CEM leukemia,8.92 µM
same,GI50,COLO 205 colon,3.28 µM
same,TGI,COLO 205 colon,12 µM
same,GI50,DU-145 prostate,3.21 µM
same,TGI,DU-145 prostate,10.4 µM
same,GI50,EKVX NSCLC,5.39 µM
same,TGI,EKVX NSCLC,26.9 µM
same,GI50,HCC-2998 colon,2.29 µM
same,TGI,HCC-2998 colon,6.08 µM
same,GI50,HCT-116 colon,3.04 µM
same,TGI,HCT-116 colon,10.3 µM
same,GI50,HCT-15 colon,5.29 µM
same,TGI,HCT-15 colon,18.4 µM
same,GI50,HL-60(TB) leukemia,2.86 µM
same,TGI,HL-60(TB) leukemia,17.1 µM
same,GI50,HOP-62 NSCLC,2.05 µM
same,TGI,HOP-62 NSCLC,6 µM
same,GI50,HOP-92 NSCLC,1.3 µM
same,TGI,HOP-92 NSCLC,6.55 µM
same,GI50,HS 578T breast,3.31 µM
same,TGI,HS 578T breast,19.4 µM
same,GI50,HT29 colon,3.58 µM
same,TGI,HT29 colon,11.6 µM
same,GI50,IGROV1 ovarian,4.5 µM
same,TGI,IGROV1 ovarian,17.6 µM
same,GI50,K-562 leukemia,2.29 µM
same,TGI,K-562 leukemia,6.37 µM
same,GI50,KM12 colon,2.66 µM
same,TGI,KM12 colon,8.95 µM
same,GI50,LOX IMVI melanoma,2.13 µM
same,TGI,LOX IMVI melanoma,4.33 µM
same,GI50,M14 melanoma,2.83 µM
same,TGI,M14 melanoma,7.55 µM
same,GI50,MALME-3M melanoma,1.98 µM
same,TGI,MALME-3M melanoma,3.85 µM
same,GI50,MCF7 breast,2.4 µM
same,TGI,MCF7 breast,7.34 µM
same,GI50,MDA-MB-231 breast,2 µM
same,TGI,MDA-MB-231 breast,4.07 µM
same,GI50,MDA-MB-435,2.07 µM
same,TGI,MDA-MB-435,5.03 µM
same,GI50,MDA-MB-468 breast,1.4 µM
same,TGI,MDA-MB-468 breast,3 µM
same,GI50,MOLT-4 leukemia,1.64 µM
same,TGI,MOLT-4 leukemia,5.24 µM
same,GI50,NCI-H226 lung,3.31 µM
same,TGI,NCI-H226 lung,12.3 µM
same,GI50,NCI-H23 lung,2.54 µM
same,TGI,NCI-H23 lung,6.53 µM
same,GI50,NCI-H460 lung,3.21 µM
same,TGI,NCI-H460 lung,11.1 µM
same,GI50,NCI-H522 lung,2.17 µM
same,TGI,NCI-H522 lung,5.25 µM
same,GI50,NCI/ADR-RES ovarian,> 100 µM
same,TGI,NCI/ADR-RES ovarian,> 100 µM
same,GI50,OVCAR-3 ovarian,1.87 µM
same,TGI,OVCAR-3 ovarian,4.54 µM
same,GI50,OVCAR-4 ovarian,2.84 µM
same,TGI,OVCAR-4 ovarian,9.26 µM
same,GI50,OVCAR-5 ovarian,11 µM
same,TGI,OVCAR-5 ovarian,24.4 µM
same,GI50,OVCAR-8 ovarian,2.59 µM
same,TGI,OVCAR-8 ovarian,7.81 µM
same,GI50,PC-3 prostate,3.06 µM
same,TGI,PC-3 prostate,11.3 µM
same,GI50,RPMI-8226 leukemia,3.36 µM
same,TGI,RPMI-8226 leukemia,28.2 µM
same,GI50,RXF 393 renal,1.1 µM
same,TGI,RXF 393 renal,3.88 µM
same,GI50,SF-268 CNS,2.22 µM
same,TGI,SF-268 CNS,6.23 µM
same,GI50,SF-295 CNS,3.67 µM
same,TGI,SF-295 CNS,13.6 µM
same,GI50,SF-539 CNS,1.58 µM
same,TGI,SF-539 CNS,3.68 µM
same,GI50,SK-MEL-2 melanoma,2.11 µM
same,TGI,SK-MEL-2 melanoma,4.38 µM
same,GI50,SK-MEL-28 melanoma,1.91 µM
same,TGI,SK-MEL-28 melanoma,3.65 µM
same,GI50,SK-MEL-5 melanoma,3.32 µM
same,TGI,SK-MEL-5 melanoma,12.8 µM
same,GI50,SK-OV-3 ovarian,2.34 µM
same,TGI,SK-OV-3 ovarian,6.47 µM
same,GI50,SN12C renal,2.38 µM
same,TGI,SN12C renal,6.58 µM
same,GI50,SNB-19 CNS,2.59 µM
same,TGI,SNB-19 CNS,8.76 µM
same,GI50,SR leukemia,1.74 µM
same,TGI,SR leukemia,5.33 µM
same,GI50,SW-620 colon,3.18 µM
same,TGI,SW-620 colon,12.6 µM
same,GI50,T-47D breast,2.22 µM
same,TGI,T-47D breast,5.92 µM
same,GI50,TK-10 renal,18.6 µM
same,TGI,TK-10 renal,56.8 µM
same,GI50,U251 CNS,1.88 µM
same,TGI,U251 CNS,3.76 µM
same,GI50,UACC-257 melanoma,3.97 µM
same,TGI,UACC-257 melanoma,16.7 µM
same,GI50,UACC-62 melanoma,1.96 µM
same,TGI,UACC-62 melanoma,4.34 µM
same,GI50,UO-31 renal,19.4 µM
same,TGI,UO-31 renal,> 100 µM
